PubChem BioAssay AID1996
In brackets after ≈: the same amount, converted by molar mass.

details: buffer; pH 7.4; 200.0 µM

Row | SMILES | solubility kinetic
1 | COc1ccc(C)c2sc(=NC(=O)c3cccc(N4C(=O)CCC4=O)c3)n(C)c12 | < 0.3 µg/mL
2 | COc1ccccc1C(=O)NC(=O)COC(=O)c1nccnc1N | > 49.5 µg/mL
3 | Cc1ccc(S(=O)(=O)N2CCC[C@H]2C(=O)NCc2ccccc2Cl)cc1 | > 58.9 µg/mL
4 | Clc1ccccc1-c1nc(-c2ccc(Br)o2)no1 | < 0.3 µg/mL
5 | Cn1c(OCc2cccnc2)nc2c1c(=O)n(Cc1ccc(F)cc1)c(=O)n2C | 7.7 µg/mL (≈ 19.5 µM)
6 | O=C(O)C1CCCCC1C(=O)NCCc1ccc(F)cc1 (configuration not stated) | > 44 µg/mL
7 | O=C(O)c1ccc(NC(=O)c2ccccc2NC(=O)c2cccc(F)c2)cc1 | > 56.8 µg/mL
8 | Cc1ccc(S(=O)(=O)Nc2nc(-c3ccccc3)cs2)cc1 | > 49.6 µg/mL
9 | Cc1cccc(NC(=O)c2cc3ccccc3nc2C)c1 | 29.3 µg/mL (≈ 106 µM)
10 | COc1ccc(C)cc1Nc1ccc(C(=O)O)cc1[N+](=O)[O-] | 44.3 µg/mL (≈ 147 µM)
11 | COc1ccc(S(=O)(=O)N(Cc2ccccc2)c2ccccc2C(=O)O)cc1 | 53.7 µg/mL (≈ 135 µM)
12 | COc1ccc(C(=O)/C=C2/C(=O)Nc3ccccc32)cc1OC | 1.2 µg/mL (≈ 3.88 µM)
13 | O=C(NCc1ccncc1)c1cc(F)c(F)cc1Cl | > 42.4 µg/mL
14 | CC(=O)Nc1ccc2c(c1)N(C(C)=O)c1ccccc1CC2 | > 44.2 µg/mL
15 | CCN(CC(=O)NCC(=O)Nc1cccc(C)c1C)Cc1ccccc1 | > 53 µg/mL
16 | CCOC(=O)c1sc(/N=C/c2c(O)ccc3ccccc23)cc1C | 9.8 µg/mL (≈ 28.9 µM)
17 | Cc1cc(C)n2c(=O)c3ccc(Cl)cc3nc2c1C#N | 1.3 µg/mL (≈ 4.58 µM)
18 | CCC(=O)OCCNc1cc(SCCC(=O)OC)c2nonc2c1[N+](=O)[O-] | 54.9 µg/mL (≈ 138 µM)
19 | CN1CCN(C(=O)/C(=C\c2cccs2)NC(=O)c2ccccc2)CC1 | > 53.3 µg/mL
20 | Cc1ccc(Sc2ncccc2O)cc1 | 17.4 µg/mL (≈ 80.1 µM)
21 | Cc1ccccc1NC(=O)CCl | 26.2 µg/mL (≈ 143 µM)
22 | COP(=O)(NS(=O)(=O)c1ccccc1)OC | 33.9 µg/mL (≈ 128 µM)
23 | Cc1cc(C)c(C(N)=O)c(Nc2ccc(F)cc2)n1 | > 38.9 µg/mL
24 | O=C(c1ccccc1)c1ccccc1N=Cc1c(O)[nH]c(=O)[nH]c1=O | 3.8 µg/mL (≈ 11.3 µM)

Row | SMILES | solubility kinetic
25 | Cc1cc(Oc2ccc(Cl)cc2)nc(-c2ccccn2)n1 | 38.4 µg/mL (≈ 129 µM)
26 | CN(C(=S)Nc1cccnc1)c1ccc(O)cc1 | 29 µg/mL (≈ 112 µM)
27 | O=C(CCCc1ccccc1)NCCc1ccc(F)cc1 | 39.6 µg/mL (≈ 139 µM)
28 | Cc1cccc(CC2S/C(=N/c3cccc(C)n3)NC2=O)c1 (configuration not stated) | 0.7 µg/mL (≈ 2.25 µM)
29 | CSc1nnc(C)c(=O)n1COC(=O)/C=C/c1ccccc1 | > 47.6 µg/mL
30 | CCc1cc2c(=O)n(CC(=O)NC3CCCCC3)cnc2s1 | 20.5 µg/mL (≈ 64.2 µM)
31 | CCN(c1ccccc1)S(=O)(=O)c1ccc(Cl)c(NC(=O)CNCc2ccccc2OC)c1 | 3.7 µg/mL (≈ 7.58 µM)
32 | O=S(=O)(c1ccc(Cl)cc1)n1cnc2ccccc21 | > 43.9 µg/mL
33 | COc1cc(C2SCC(=O)N2Cc2ccccc2)ccc1O (configuration not stated) | > 47.3 µg/mL
34 | COc1ccc(CNc2nc3ccccc3s2)cc1OC | 1.4 µg/mL (≈ 4.66 µM)
35 | CC(=O)c1ccc(Sc2ccccn2)c([N+](=O)[O-])c1 | 38 µg/mL (≈ 139 µM)
36 | CC(=O)c1c(-c2ccccc2)[nH]c2ccccc12 | 1.4 µg/mL (≈ 5.95 µM)
37 | O=C1OC(c2ccc(Cl)cc2)=C/C1=C/c1cccnc1 | 0.7 µg/mL (≈ 2.47 µM)
38 | Cc1ccc(C)c(C(=O)CN2C(=O)NC3(CCCCCCC3)C2=O)c1 | 2.6 µg/mL (≈ 7.59 µM)
39 | Cc1c(C)n(CCc2ccccc2)c2ncnc(NCCCO)c12 | 48.3 µg/mL (≈ 149 µM)
40 | Cc1oc(C(N)=O)nc1-c1ccccc1 | > 30.3 µg/mL
41 | CC1CN(S(=O)(=O)c2cccc(C(F)(F)F)c2)CC(C)O1 (configuration not stated) | 43.6 µg/mL (≈ 135 µM)
42 | O=C1CN(C(=O)COC(=O)CCC(=O)c2ccc(F)cc2)c2ccccc2N1 | 31.6 µg/mL (≈ 82.2 µM)
43 | CSc1ccc(S(=O)(=O)NC2CC3CCC2C3)cc1 (configuration not stated) | 29.7 µg/mL (≈ 99.9 µM)
44 | Cc1ccc(C)n1CCN1CCN(C(=O)c2ccc(Cl)cc2)CC1 | 36.3 µg/mL (≈ 105 µM)
45 | CN(C)c1cccc(NC(=O)c2cccc3ccccc23)c1 | 6.1 µg/mL (≈ 21 µM)
46 | Cc1nc(-c2ccc3c(c2)CCC(=O)N3)cs1 | 31.7 µg/mL (≈ 130 µM)
47 | COc1ccc([N+](=O)[O-])cc1NC(=O)C1(c2ccccc2)CCOCC1 | 6.7 µg/mL (≈ 18.8 µM)
48 | CCOC(=O)c1c(C)[nH]c(C(=O)C(C)N2CCCC2)c1C (configuration not stated) | 37 µg/mL (≈ 127 µM)

Row | SMILES | solubility kinetic
49 | CC(=O)CN1C(=O)NC2(CCCc3ccccc32)C1=O (configuration not stated) | > 40.8 µg/mL
50 | Cc1cccc(OCCCC(=O)NC2CCCCC2)c1 | 14.1 µg/mL (≈ 51.2 µM)
51 | O=C(NC1CC1)c1cccc(S(=O)(=O)N2CCOCC2)c1 | > 46.6 µg/mL
52 | CCc1nc2ccc(C(=O)N(C)CC(=O)Nc3ccccc3C(F)(F)F)cc2nc1CC | 27.6 µg/mL (≈ 62.1 µM)
53 | Cc1cc(C)cc(NC(=O)c2sc3nc(C)cc(C)c3c2N)c1 | 0.3 µg/mL (≈ 0.922 µM)
54 | N#Cc1ccccc1NC(=O)COC(=O)c1c[nH]c2ccccc12 | 4.4 µg/mL (≈ 13.8 µM)
55 | O=C(NCCC(=O)N1CCN(c2ccccn2)CC1)c1ccc([N+](=O)[O-])cc1 | > 57.5 µg/mL
56 | CCCC(=O)Nc1cc2c3c(c1)CC(=O)N3CCC2 | > 38.7 µg/mL
57 | O=C(Cc1c[nH]c2ccccc12)Nc1ccc(N2CCOCC2)cc1 | 10.1 µg/mL (≈ 30.1 µM)
58 | CCOc1ccc(NC(=O)COC(=O)CC2CCCCC2)cc1 | 26.6 µg/mL (≈ 83.3 µM)
59 | C/C(=N\O)c1cc(Cl)ccc1O | > 27.8 µg/mL
60 | Cc1ccc(S(=O)(=O)N2CCC(C(=O)NCCN3CCOCC3)CC2)cc1C | 58.4 µg/mL (≈ 143 µM)
61 | NC(=O)Cc1nc(-c2ccc(F)cc2)cs1 | > 35.4 µg/mL
62 | COc1ccc(C(=O)CC(=O)C(=O)Nc2cc(C)ccc2C)cc1 | 11.2 µg/mL (≈ 34.4 µM)
63 | CCc1cccc(NC(=S)Nc2cccc3ccccc23)c1 | 3.8 µg/mL (≈ 12.4 µM)
64 | COc1cccc(CNC(=O)c2cccnc2Sc2ccccc2)c1 | 5.6 µg/mL (≈ 16 µM)
65 | O=C(Nc1ccccc1C(=O)Nc1ccncc1)c1ccccc1 | 6 µg/mL (≈ 18.9 µM)
66 | CC(C)(C)NC(=S)N1CCC(C(=O)c2ccc(F)cc2)CC1 | 5.2 µg/mL (≈ 16.1 µM)
67 | CCC(CC)NC(=O)Cn1c(C(C)NC(C)=O)nc2ccccc21 (configuration not stated) | 41.3 µg/mL (≈ 125 µM)
68 | CNS(=O)(=O)c1cccc(C(=O)OC2CCOC2=O)c1 (configuration not stated) | > 44.9 µg/mL
69 | CC(=O)C(c1ccccc1)C(c1ccccc1)C(C)[N+](=O)[O-] (configuration not stated) | < 0.6 µg/mL
70 | Cc1nc(N)sc1C(=O)OCC(C)C | > 32.1 µg/mL
71 | COc1cccc(C(=O)NCC(=O)N/N=C/c2cccnc2)c1 | > 46.8 µg/mL
72 | CC(=O)Nc1ccc(NC(=O)[C@H](C)NC(=O)c2ccco2)cc1 | > 47.3 µg/mL

Row | SMILES | solubility kinetic
73 | CSc1nc2nc3c(cc2c(=O)n1-c1ccccc1C)CCCC3 | 37.9 µg/mL (≈ 112 µM)
74 | O=C(c1ccc([N+](=O)[O-])o1)N1CCN(Cc2ccccc2)CC1 | 9.2 µg/mL (≈ 29.2 µM)
75 | O=C(CN1C(=O)C(=O)N(C2CCCC2)C1=O)Nc1ccccc1OC(F)F | > 57.2 µg/mL
76 | O=C(Nc1ccc2c(c1)C(=O)OC2)c1ccc(Cl)cc1 | < 0.6 µg/mL
77 | Cc1cc(C(=O)CCC(=O)NCC(=O)Nc2c(C)cccc2C)c(C)s1 | > 55.9 µg/mL
78 | CC(C)(C)NC(=O)NC(=O)CN1CCN(c2ccccc2)CC1 | > 47.8 µg/mL
79 | N#Cc1c(-c2cccs2)cc(-c2cccs2)[nH]c1=O | 0.7 µg/mL (≈ 2.46 µM)
80 | CN(C(=O)COC(=O)c1cccc(Cl)c1)C1CCS(=O)(=O)C1 (configuration not stated) | > 51.9 µg/mL
81 | CCOc1ccc(/C=C(\C(=O)O)c2ccc(S(=O)(=O)N3CCCCC3)s2)cc1OC | > 67.7 µg/mL
82 | CNc1nc(C)c([N+](=O)[O-])c(Nc2ccc(OC)cc2)n1 | 0.5 µg/mL (≈ 1.73 µM)
83 | Cc1cccc(-c2nsc(SCC(=O)NCC3CCCO3)n2)c1 (configuration not stated) | > 52.4 µg/mL
84 | OCCN(Cc1ccccc1)C(=S)Nc1ccc(F)cc1 | 43.1 µg/mL (≈ 142 µM)
85 | Cc1cc(=O)oc2cc(NC(=O)CC3(CC(=O)O)CCCC3)ccc12 | 50.2 µg/mL (≈ 146 µM)
86 | CC(C)COc1ncnc2c1sc1nc3c(cc12)COC(C)(C)C3 | 3.7 µg/mL (≈ 10.8 µM)
87 | COC(=O)c1[nH]c2c(c1C)C(=O)CC(c1ccc(OC)c(OC)c1)C2 (configuration not stated) | 2.1 µg/mL (≈ 6.12 µM)
88 | Cc1[nH]c(=O)c(C#N)c(C)c1[N+](=O)[O-] | 27.3 µg/mL (≈ 141 µM)
89 | COC(=O)c1ccc(NC(=O)Cn2c([N+](=O)[O-])cnc2C)cc1 | 28.8 µg/mL (≈ 90.5 µM)
90 | CSCCNC(=O)c1ccc2nc(C3CCCCC3)oc2c1 | 13.2 µg/mL (≈ 41.5 µM)
91 | COc1ccc(S(=O)(=O)N2CCOCC2)cc1NC(=O)COC(=O)Cc1ccccc1 | 51.7 µg/mL (≈ 115 µM)
92 | CC1CCN(C(=S)NC(=O)c2ccc(F)cc2)CC1 | > 42.1 µg/mL
93 | O=C(NCC(c1ccco1)N1CCCCC1)c1cccnc1 (configuration not stated) | > 44.9 µg/mL
94 | COc1cccc2cc(C(=O)Nc3ccccc3C)/c(=N/O)oc12 | 4.6 µg/mL (≈ 14.2 µM)
95 | CCOc1cc(N2CCOCC2)c(OCC)cc1NC(=O)COC(=O)c1ccc([N+](=O)[O-])o1 | > 69.5 µg/mL
96 | COc1ccc(C(=O)c2oc3ccc(OC)cc3c2NC(C)=O)cc1 | < 0.7 µg/mL

Row | SMILES | solubility kinetic
97 | COc1ccc(/C=C/C(=O)O)cc1S(=O)(=O)Nc1ccc2c(c1)OCO2 | 49.8 µg/mL (≈ 132 µM)
98 | CCn1c(SCC(=O)NCC2CCCO2)nc2ccccc21 (configuration not stated) | > 47.9 µg/mL
99 | CC(=O)NC(c1ccc(Cl)cc1Cl)c1ccc2cccnc2c1O (configuration not stated) | 3 µg/mL (≈ 8.31 µM)
100 | Cc1nc2ccccc2n1Cc1ccc(Cl)cc1 | 24.9 µg/mL (≈ 97 µM)
101 | O=C(CCSCc1cccc(F)c1)NCCc1ccccc1 | 18.4 µg/mL (≈ 58 µM)
102 | CCC1CCc2sc(C(=O)N3CCCN(C)CC3)cc2C1 (configuration not stated) | 37.5 µg/mL (≈ 122 µM)
103 | CC(C)COc1ccc(C(=O)OCC(=O)NCc2cccs2)cc1 | 1.1 µg/mL (≈ 3.17 µM)
104 | COc1ccc(CNC(=O)C(C)N(C)Cc2cccc(F)c2)cc1 (configuration not stated) | 26.1 µg/mL (≈ 79 µM)
105 | CN1CCN(CC#CCC(O)(c2ccccc2)c2ccccc2)CC1.Cl | > 55.6 µg/mL
106 | OC1CCN(Cc2ccc3ccccc3c2)CC1 | 26.6 µg/mL (≈ 110 µM)
107 | CCC(=O)N1c2ccc(S(=O)(=O)N3CCCC3)cc2CC1C (configuration not stated) | 33.5 µg/mL (≈ 104 µM)
108 | COc1ccc(N=Cc2c(O)n(C)c(=O)[nH]c2=O)cc1 | 2.2 µg/mL (≈ 7.99 µM)
109 | O=C(Cc1ccc([N+](=O)[O-])cc1)N1CCN(c2ccc([N+](=O)[O-])cc2)CC1 | 5.2 µg/mL (≈ 14 µM)
110 | O=C(CSCc1ccc(Br)cc1)NCc1ccccn1 | > 52.7 µg/mL
111 | O=C(NCc1ccc2c(c1)OCO2)c1cc(=O)[nH]c2ccccc12 | 6 µg/mL (≈ 18.6 µM)
112 | Cc1ccc(S(=O)(=O)NC(=O)Nc2ccc(C)cn2)cc1 | > 45.8 µg/mL
113 | N#C/C(=C\c1ccc(O)c(O)c1)C(=O)Nc1cccc2ncccc12 | 20 µg/mL (≈ 60.4 µM)
114 | CC1CCCC(NC(=O)c2ccc3c(c2)OCO3)C1C (configuration not stated) | > 41.3 µg/mL
115 | O=C(Nc1ccc(F)cc1F)N1CCN(CCc2ccccc2)CC1 | 42.7 µg/mL (≈ 124 µM)
116 | Nc1nc(NCc2ccco2)nc(N2CCOCC2)c1[N+](=O)[O-] | > 48 µg/mL
117 | CSc1nccc(Oc2ccccc2Cl)n1 | 6.8 µg/mL (≈ 26.9 µM)
